Results on 3 compounds are retold here after ChEMBL document CHEMBL1137818, “Structure and spasmolytic activity of eucalyptanoic acid from Eucalyptus camaldulensis var. obtusa and synthesis of its active derivative from oleanolic acid” (2002).

By inhibition is commonly meant the relative decrease from the control value, in per cent.

For assay [1], the system named is Jejunum. Briefly: Spasmolytic activity in rabbit jejunum assessed as inhibition of calcium influx-mediated spontaneous muscle contraction at 1 mg/mL after 30 mins. It counts as functional. Conditions: Oryctolagus cuniculus, 0.5 h.
Assay [2] relates to Jejunum. Briefly: Spasmolytic activity in rabbit jejunum assessed as inhibition of K+-induced muscle contraction at 1 mg/mL after 30 mins. It counts as functional. The note with it: Oryctolagus cuniculus, 0.5 h.

`CC1(C)CC[C@]2(C(=O)O)CC[C@]3(C)C(=CC=C4[C@@]5(C)CC[C@H](O)C(C)(C)[C@@H]5CC[C@]43C)[C@H]2C1` [EUCALYPTANOIC ACID]: the inhibition at 1000 µg/mL came to 58.2% with Jejunum [1] and 31.1% with Jejunum [2].

As to `COC(=O)[C@]12CCC(C)(C)C[C@@H]1C1=CC[C@@H]3[C@@]4(C)CC[C@H](OC(C)=O)C(C)(C)[C@@H]4CC[C@@]3(C)[C@]1(C)CC2` [METHYL ACETYL OLEANOLATE], the inhibition at 1000 µg/mL with Jejunum [1] is 67.7%; in the assay on Jejunum [2], 35.5%.

In the case of `COC(=O)[C@]12CCC(C)(C)C[C@@H]1C1=CC=C3[C@@]4(C)CC[C@H](OC(C)=O)C(C)(C)[C@@H]4CC[C@@]3(C)[C@]1(C)CC2` [METHYLACETYLEUCALYPTANOATE], the inhibition at 1000 µg/mL worked out at 95.3% in the assay on Jejunum [1] and 85.9% in the assay with Jejunum [2].
